Experimental data published in ChEMBL document CHEMBL6074685, “Design, synthesis and biological evaluation of novel diaryl-substituted fused nitrogen heterocycles as tubulin polymerization inhibitors to overcome multidrug resistance in vitro and in vivo” (Eur J Med Chem, 2025).
Values after ≈ are worked out from the molar mass of the structure shown. Active and inactive are the calls of the source. The calls are words filed in the database; no cut-off is given here.

Experiments:
A549/TR [1] = assay: Antiproliferative activity against human A549/T cell assessed as cell growth inhibition incubated for 48 hrs by MTT assay; assay type: functional, cell-based
A549 [2] = assay: Antiproliferative activity against human A549 cells assessed as cell growth inhibition incubated for 48 hrs by MTT assay; details: A549, 48 h
[3] = Resistance index, ratio of IC50 for human A549/T cells to IC50 for human A549 cells; assay type: functional
[4] = Cytotoxicity against human MCF-10A cells assessed as inhibition of cell growth at 2 nM incubated for 48 hrs by MTT assay relative to control; assay type: toxicity, cell-based
[5] = Cytotoxicity against human MCF-10A cells assessed as inhibition of cell growth at 100 nM incubated for 48 hrs by MTT assay relative to control; assay type: toxicity, cell-based
NCI-H1299 = assay: Antiproliferative activity against human NCI-H1299 cells assessed as cell growth inhibition incubated for 48 hrs by MTT assay; assay type: functional, cell-based; details: NCI-H1299, 48 h
HCC827 = assay: Antiproliferative activity against human HCC827 cells assessed as cell growth inhibition incubated for 48 hrs by MTT assay; assay type: functional, cell-based; details: HCC827, 48 h
Tubulin (Homo sapiens) = Tubulin (Homo sapiens) (UniProt P68371+Q9H4B7+P0DPH7+P68366+Q13509+Q71U36+P04350+Q3ZCM7+P07437+P68363+Q9BQE3+Q6PEY2+Q13885+Q9BVA1+Q9BUF5); assay: Disruption of microtubule network in human A549 cells at 50 to 100 nM incubated for 24 hrs by immunofluorescence staining based confocal microscopy analysis; assay type: cell-based; details: dose 50-100 nM
A549 [6] = assay: Inhibition of colony formation in human A549 cells incubated for 48 hrs by crystal violet staining based analysis; assay type: functional, cell-based; details: dose 0.1-0.5 µM
A549/TR [7] = assay: Downregulation of P-gp level in human A549/T cell measured after 48 hrs by immunoblotting analysis; assay type: functional, cell-based; details: dose 62.5-500 nM
A549/TR [8] = assay: Induction of cell cycle arrest in human A549/T cell assessed as accumulation of cells at G2/M phase by RNAse A/PI-staining based flow cytometric analysis; assay type: functional; details: dose 25-100 nM
A549 [9] = assay: Induction of apoptosis in human A549 cells at 25 nM incubated for 48 hrs by V-FITC/PI staining based flow cytometry analysis relative to control; assay type: functional
A549/TR [10] = assay: Induction of apoptosis in human A549/T cell at 62.5 nM incubated for 48 hrs by V-FITC/PI staining based flow cytometry analysis relative to control; assay type: functional
A549/TR [11] = assay: Induction of apoptosis in human A549/T cell at 125 nM incubated for 48 hrs by V-FITC/PI staining based flow cytometry analysis relative to control; assay type: functional
A549/TR [12] = assay: Induction of apoptosis in human A549/T cell at 250 nM incubated for 48 hrs by V-FITC/PI staining based flow cytometry analysis relative to control; assay type: functional
[13] = Metabolic stability in human liver microsome assessed as parent compound remaining measured upto 50 mins by LC-MS/MS analysis; assay type: ADME; details: microsomes
[14] = Metabolic stability in human liver microsome assessed as intrinsic clearance measured upto 50 mins by LC-MS/MS analysis; assay type: ADME; details: liver microsomes, read-out: CLH
[15] = Aqueous solubility of the compound […] at pH 7.4 by HPLC analysis; assay type: physicochemical
A549/TR [16] = assay: Antitumor activity against human A549/T cell xenografted in BALB/c mouse assessed as reduction in tumor growth at 15 mg/kg, ip administered every 2 days; assay type: functional, organism-based; details: time 2.0 day
[17] = Toxicity in BALB/c mouse implanted with human A549/T cell assessed as change in body weight at 15 mg/kg, ip administered every 2 days; assay type: organism-based; details: in vivo, 48 h, time 2 day
[18] = Toxicity in BALB/c mouse implanted with human A549/T cell assessed as change in body weight at 30 mg/kg, ip administered every 2 days; assay type: organism-based; details: in vivo, 48 h, time 2 day
[19] = Toxicity in BALB/c mouse implanted with human A549/T cell assessed as heart damage at 15 to 30 mg/kg, ip administered every 2 days by H and E staining based analysis; assay type: organism-based; details: in vivo, 48 h, dose 15-30 mg/kg, time 2 day
[20] = Toxicity in BALB/c mouse implanted with human A549/T cell assessed as spleen damage at 15 to 30 mg/kg, ip administered every 2 days by H and E staining based analysis; assay type: organism-based; details: in vivo, 48 h, dose 15-30 mg/kg, time 2 day
[21] = Toxicity in BALB/c mouse implanted with human A549/T cell assessed as WBC count at 15 mg/kg, ip administered every 2 days and measured after 2 weeks (reference value: 1.3 10^9/L); assay type: organism-based; details: in vivo, 336 h
[22] = Toxicity in BALB/c mouse implanted with human A549/T cell assessed as red blood cell distribution width-cell size at 15 mg/kg, ip administered every 2 days and measured after 2 weeks (reference value: 12.1 fL); assay type: organism-based; details: in vivo, 336 h
[23] = Toxicity in BALB/c mouse implanted with human A549/T cell assessed as red blood cell distribution width-cell size at 30 mg/kg, ip administered every 2 days and measured after 2 weeks (reference value: 12.1 fL); assay type: organism-based; details: in vivo, 336 h
[24] = Toxicity in BALB/c mouse implanted with human A549/T cell assessed as Plate-letocrit at 30 mg/kg, ip administered every 2 days and measured after 2 weeks (reference value: 0.549%); assay type: organism-based; details: in vivo, 336 h
[25] = Toxicity in BALB/c mouse implanted with human A549/T cell assessed as mean platelet volume at 30 mg/kg, ip administered every 2 days and measured after 2 weeks (reference value: 10.1 fL); assay type: organism-based; details: in vivo, 336 h
[26] = Toxicity in BALB/c mouse implanted with human A549/T cell assessed as platelet distribution width at 30 mg/kg, ip administered every 2 days and measured after 2 weeks (reference value: 15.3 fL); assay type: organism-based; details: in vivo, 336 h
[27] = Toxicity in BALB/c mouse implanted with human A549/T cell assessed as MCH level at 30 mg/kg, ip administered every 2 days and measured after 2 weeks (reference value: 29.2 pg); assay type: organism-based; details: in vivo, 336 h
[28] = Toxicity in BALB/c mouse implanted with human A549/T cell assessed as MCHC level at 30 mg/kg, ip administered every 2 days and measured after 2 weeks (reference value: 570 g/L); assay type: organism-based; details: in vivo, 336 h
[29] = Toxicity in BALB/c mouse implanted with human A549/T cell assessed as lymphocyte count at 15 mg/kg, ip administered every 2 days and measured after 2 weeks (reference value: […]); assay type: organism-based; details: in vivo, 336 h
[30] = Toxicity in BALB/c mouse implanted with human A549/T cell assessed as lymphocyte count at 30 mg/kg, ip administered every 2 days and measured after 2 weeks (reference value: […]); assay type: organism-based; details: in vivo, 336 h
[31] = Toxicity in BALB/c mouse implanted with human A549/T cell assessed as lymphocyte count at 15 mg/kg, ip administered every 2 days and measured after 2 weeks (reference value: 56%); assay type: organism-based; details: in vivo, 336 h
[32] = Toxicity in BALB/c mouse implanted with human A549/T cell assessed as lymphocyte count at 30 mg/kg, ip administered every 2 days and measured after 2 weeks (reference value: 56%); assay type: organism-based; details: in vivo, 336 h
[33] = Toxicity in BALB/c mouse implanted with human A549/T cell assessed as monocyte count at 15 mg/kg, ip administered every 2 days and measured after 2 weeks (reference value: 30.6 %); assay type: organism-based; details: in vivo, 336 h

IC50 (A549/TR [1]): 57 nM | IC50 (A549 [2]): 23 nM | IC50 (NCI-H1299): 63 nM | IC50 (HCC827): 46 nM | Activity (Tubulin (Homo sapiens)): Active | Stability [13]: Stable | CLint scaled [14]: 23 mL/min/kg | solubility [15]: 20.8 µg/mL (≈ 51.3 µM)
Compound: COc1ccc(-c2cc(-c3ccc(OC)c(OC)c3OC)c3nc[nH]c3c2)cc1N
Ratio IC50 [3]: 2.47 | inhibition at 48 h, 0.002 µM [4]: 1% | inhibition at 48 h, 0.1 µM [5]: 47% | inhibition (A549 [6]): Dose-dependent-effect | Activity (A549/TR [7]): Dose-dependent-effect | Activity (A549/TR [8]): Dose-dependent-effect | Activity (A549 [9]): 15.47% | Activity (A549/TR [10]): 22.22% | Activity (A549/TR [11]): 54.01% | Activity (A549/TR [12]): 68.13% | Activity (A549/TR [16]): Active | Activity [17]: Non-toxic | Activity [18]: Non-toxic | Activity [19]: Non-toxic | Activity [20]: Non-toxic | Activity [21]: 2.8 10^9/L | Activity [22]: 12.1 fL | Activity [23]: 12.3 fL | Activity [24]: 0.425% | Activity [25]: 10.2 fL | Activity [26]: 16.9 fL | Activity [27]: 31.6 pg | Activity [28]: 624 g/L | Activity [29]: 1.42 10^9/L | Activity [30]: 1.32 10^9/L | Activity [31]: 50.7% | Activity [32]: 55.2% | Activity [33]: 29.5%
